From patent US6914045B2, “Glycopeptide antibiotics” (Wyeth Holdings Corporation, priority 2001, dated 2005)
≈ marks a conversion by molar mass, not a printed value.

How the values were obtained:
[1] = anatomic pathology (histopathology of heart and kidney) in mice; assay type: in vivo; conditions: CD-1 mice, 20 mg/kg intravenously daily for 9 days, necropsy day 10, microscopic histopathology
Description: Samples of tissues from necropsied mice were formalin-fixed, paraffin-embedded, sectioned, stained with hematoxylin and eosin, and examined microscopically. Histopathologic findings were recorded. These findings were subjectively graded on a scale corresponding to slight, mild, moderate, marked and severe as compared to untreated controls.

[2] = tested on: Streptococcus pneumoniae (GC 1894); assay: acute lethal infection in mice; assay type: in vivo; conditions: female CD-1 mice, intraperitoneal challenge, intravenous 30 min. after infection, 7 day survival
In short: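 Mice (female CD-1, 20+/−2 gm) receive bacteria ip in broth or hog gastric mucin, then test agent iv after 30 min. Median effective dose is calculated from 7 day survival pooled across 3 tests.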

[3] = tested on: Enterococcus sp.; assay: in vitro antibacterial evaluation, MIC by broth dilution; assay type: cell-based; conditions: broth dilution, 18 hours at 35° C.; for MIC Enterococcus faecalis (ATCC 29212): strain ATCC 29212; for MIC Enterococcus faecalis (GC 2242): strain GC 2242; for MIC Enterococcus faecium (GC 2243): strain GC 2243; for MIC Enterococcus faecalis (GC 2691): strain GC 2691; for MIC Enterococcus faecalis (GC 3059): strain GC 3059; for MIC Enterococcus faecalis (GC 4552): strain GC 4552; for MIC Enterococcus faecalis (GC 4553): strain GC 4553; for MIC Enterococcus faecalis (GC 4554): strain GC 4554; for MIC Enterococcus faecium (GC 4556): strain GC 4556; for MIC Enterococcus faecium (GC 4557): strain GC 4557; for MIC Enterococcus avium (GC 4558): strain GC 4558; for MIC Enterococcus faecalis (GC 6189): strain GC 6189
In short: (§1)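 Broth dilution per NCCLS M7-A2 in Mueller-Hinton II medium, inoculum 5×10^5 CFU/mL, antibiotic range 64-0.06 μg/mL. MIC taken as lowest concentration inhibiting growth; Gram-positive panel includes recent clinical isolates resistant to methicillin, penicillin and/or vancomycin.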

[4] = tested on: Streptococcus sp.; assay: as above; assay type: cell-based; conditions: broth dilution, 18 hours at 35° C.; for MIC Streptococcus pneumoniae (ATCC 6301): strain ATCC 6301; for MIC Streptococcus pneumoniae (GC 1894): strain GC 1894; for MIC Streptococcus pneumoniae (GC 4565): strain GC 4565
In short: as §1

[5] = tested on: Escherichia coli; assay: as above; assay type: cell-based; conditions: 18 hours at 35° C.; for MIC Escherichia coli (GC 4560): strain GC 4560
In short: as §1

[6] = tested on: Staphylococcus sp.; assay: as above; assay type: cell-based; conditions: broth dilution, 18 hours at 35° C.
In short: as §1

[7] = clinical pathology (serum clinical chemistry) in mice; assay type: in vivo; conditions: CD-1 mice, 20 mg/kg intravenously daily for 9 days, sera day 10
Description: 20-day-old CD-1 mice were divided into a vehicle control group (5 mice) and a treatment group (5 mice). Samples of glycopeptide antibiotics were administered at 20 mg/kg intravenously daily for 9 days.

N=C1NCC(C(O)C2NC(=O)C(Cc3ccc(OC4OC(CO)C(OC5OC6COC7(OC6C(O)C5O)C5CC6CC(C5)CC7C6)C(O)C4O)cc3)NC(=O)C(CC3CCCCC3)NC(=O)CNC(=O)C(CO)NC(=O)C(C(O)C3CNC(=N)N3C3OC(CO)C(O)C(O)C3O)NC2=O)N1 (stereo not drawn) [Example 106, Cyclo[3-cyclohexylalanyl-O-[4-O-[4,6-O-(2-adamantylidene)hexopyranosyl]hexopyranosyl]-tyrosyl-3-(2-iminoimidazolidin-4-yl)seryl-3-(3-hexopyranosyl-2-iminoimidazolidin-4-yl)-serylserylglycyl]]
Anatomical Pathology (Day 10), Heart [1]: 0 | median effective dose (ED50), Streptococcus pneumoniae (GC 1894) [2]: 0.07 mg/kg | MIC Enterococcus faecalis (ATCC 29212) [3]: 0.5 to 2 µg/mL | MIC Enterococcus faecalis (GC 2242) [3]: 0.5 to 2 µg/mL | MIC Enterococcus faecium (GC 2243) [3]: 0.5 to 2 µg/mL | MIC Enterococcus faecalis (GC 2691) [3]: 1 to 2 µg/mL | MIC Enterococcus faecalis (GC 3059) [3]: 1 to 2 µg/mL | MIC Enterococcus faecalis (GC 4552) [3]: 1 to 2 µg/mL | MIC Enterococcus faecalis (GC 4553) [3]: 1 to 2 µg/mL | MIC Enterococcus faecalis (GC 4554) [3]: 1 to 2 µg/mL | MIC Enterococcus faecium (GC 4556) [3]: 0.5 to 2 µg/mL | MIC Enterococcus faecium (GC 4557) [3]: 0.5 to 2 µg/mL | MIC Enterococcus avium (GC 4558) [3]: 1 to 2 µg/mL | MIC Enterococcus faecalis (GC 6189) [3]: 1 to 2 µg/mL | MIC Streptococcus pneumoniae (ATCC 6301) [4]: <0.03 µg/mL | MIC Streptococcus pneumoniae (GC 1894) [4]: <0.03 µg/mL | MIC Streptococcus pyogenes (GC 4563) ([4]; strain GC 4563): <0.03 µg/mL | MIC Streptococcus agalactiae (GC 4564) ([4]; strain GC 4564): <0.03 µg/mL | MIC Streptococcus pneumoniae (GC 4565) [4]: <0.03 µg/mL | MIC Escherichia coli (GC 4560) [5]: 0.5 to 2 µg/mL | MIC Coagulase Negative Staphylococcus (GC 4547) [6]: 0.5 to 2 µg/mL | MIC Coagulase Negative Staphylococcus (GC 4548) [6]: 0.25 to 1 µg/mL | MIC Coagulase Negative Staphylococcus (GC 4549) [6]: <0.12 to 1 µg/mL | MIC Coagulase Negative Staphylococcus (GC 4551) [6]: 0.25 to 1 µg/mL | MIC Coagulase Negative Staphylococcus (GC 6257) [6]: 0.25 µg/mL (≈ 0.176 µM) | MIC Staphylococcus aureus (ATCC 29213) [6]: 0.5 to 2 µg/mL | MIC Staphylococcus aureus (GC 1131) [6]: 0.5 to 2 µg/mL | MIC Staphylococcus aureus (GC 3051) [6]: 0.5 to 2 µg/mL | MIC Staphylococcus aureus (GC 3053) [6]: 0.5 to 2 µg/mL | MIC Staphylococcus aureus (GC 4541) [6]: 0.5 to 2 µg/mL | MIC Staphylococcus aureus (GC 4542) [6]: 0.25 to 1 µg/mL | MIC Staphylococcus aureus (GC 4544) [6]: 0.25 to 2 µg/mL | MIC Staphylococcus aureus (GC 4545) [6]: 0.5 to 2 µg/mL | MIC Staphylococcus aureus-SMITH (GC 4543) [6]: 0.25 to 1 µg/mL | MIC Staphylococcus haemolyticus (GC 4546) [6]: 0.5 to 1 µg/mL | MIC Staphylococcus haemolyticus (GC 4546) ([6]; strain GC 4546): 0.5 to 1 µg/mL | MIC Coagulase Negative Staphylococcus (GC 4547) ([6]; strain GC 4547): 0.5 to 2 µg/mL | MIC Coagulase Negative Staphylococcus (GC 6257) ([6]; strain GC 6257): 0.25 µg/mL (≈ 0.176 µM)

CC(c1ccccc1)C1NC(=O)CNC(=O)C(CO)NC(=O)C(C(O)C2CNC(=N)N2C2OC(CO)C(O)C(O)C2O)NC(=O)C(C(O)C2CNC(=N)N2)NC(=O)C(Cc2ccc(OC3OC(CO)C(OC4OC5COC6(OC5C(O)C4O)C4CC5CC(C4)CC6C5)C(O)C3O)cc2)NC1=O (stereo not drawn) [Example 105, Cyclo[glycyl-β-methylphenylalanyl-O-[4-O-[4,6-O-(2-adamantylidene)hexopyranosyl]hexopyranosyl]tyrosyl-3-(2-iminoimidazolidin-4-yl)seryl-3-(3-hexopyranosyl-2-iminoimidazolidin-4-yl)serylseryl]]
Anatomical Pathology (Day 10), Heart [1]: +++ | Anatomical Pathology (Day 10), Kidney [1]: +++ | median effective dose (ED50), Streptococcus pneumoniae (GC 1894) [2]: 0.04 mg/kg | MIC Enterococcus faecalis (ATCC 29212) [3]: 1 to 2 µg/mL | MIC Enterococcus faecalis (GC 2242) [3]: 0.5 to 2 µg/mL | MIC Enterococcus faecium (GC 2243) [3]: 1 to 2 µg/mL | MIC Enterococcus faecalis (GC 2691) [3]: 1 to 2 µg/mL | MIC Enterococcus faecalis (GC 3059) [3]: 1 to 2 µg/mL | MIC Enterococcus faecalis (GC 4552) [3]: 1 to 2 µg/mL | MIC Enterococcus faecalis (GC 4553) [3]: 1 to 2 µg/mL | MIC Enterococcus faecalis (GC 4554) [3]: 1 to 2 µg/mL | MIC Enterococcus faecium (GC 4556) [3]: 0.5 to 2 µg/mL | MIC Enterococcus faecium (GC 4557) [3]: 1 to 2 µg/mL | MIC Enterococcus avium (GC 4558) [3]: 1 to 2 µg/mL | MIC Enterococcus faecalis (GC 6189) [3]: 1 to 2 µg/mL | MIC Streptococcus pneumoniae (ATCC 6301) [4]: <0.06 µg/mL | MIC Streptococcus pneumoniae (GC 1894) [4]: <0.06 µg/mL | MIC Streptococcus pneumoniae (GC 4565) [4]: <0.06 µg/mL | MIC Escherichia coli (GC 4559) ([5]; strain GC 4559): 32 µg/mL (≈ 22.4 µM) | MIC Escherichia coli (GC 4560) [5]: 0.5 to 2 µg/mL | MIC Coagulase Negative Staphylococcus (GC 4547) [6]: 0.5 to 1 µg/mL | MIC Coagulase Negative Staphylococcus (GC 4548) [6]: <0.5 to 1 µg/mL | MIC Coagulase Negative Staphylococcus (GC 4549) [6]: 0.5 to 1 µg/mL | MIC Coagulase Negative Staphylococcus (GC 4551) [6]: <0.5 to 1 µg/mL | MIC Coagulase Negative Staphylococcus (GC 6257) [6]: 0.5 to 1 µg/mL | MIC Staphylococcus aureus (ATCC 29213) [6]: <0.5 to 1 µg/mL | MIC Staphylococcus aureus (GC 1131) [6]: 0.25 to 1 µg/mL | MIC Staphylococcus aureus (GC 3051) [6]: 0.5 to 1 µg/mL | MIC Staphylococcus aureus (GC 3053) [6]: 1 to 2 µg/mL | MIC Staphylococcus aureus (GC 4541) [6]: <0.5 to 1 µg/mL | MIC Staphylococcus aureus (GC 4542) [6]: 0.5 to 1 µg/mL | MIC Staphylococcus aureus (GC 4544) [6]: 0.25 to 2 µg/mL | MIC Staphylococcus aureus (GC 4545) [6]: <0.5 to 1 µg/mL | MIC Staphylococcus aureus-SMITH (GC 4543) [6]: 0.25 to 1 µg/mL | MIC Staphylococcus haemolyticus (GC 4546) [6]: <0.5 to 1 µg/mL | MIC Staphylococcus haemolyticus (GC 4546) ([6]; strain GC 4546): <0.5 to 1 µg/mL | MIC Coagulase Negative Staphylococcus (GC 4547) ([6]; strain GC 4547): 0.5 to 1 µg/mL | MIC Coagulase Negative Staphylococcus (GC 4548) ([6]; strain GC 4548): <0.5 to 1 µg/mL | MIC Coagulase Negative Staphylococcus (GC 4549) ([6]; strain GC 4549): 0.5 to 1 µg/mL | MIC Coagulase Negative Staphylococcus (GC 4551) ([6]; strain GC 4551): <0.5 to 1 µg/mL | MIC Coagulase Negative Staphylococcus (GC 6257) ([6]; strain GC 6257): 0.5 to 1 µg/mL | Clinical Chemistry (Day 10) % of Control, ALT [7]: +480% | Clinical Chemistry (Day 10) % of Control, BUN [7]: +35%
